What was measured:
[1] = target: T1, Scytalone dehydratase (Magnaporthe oryzae (strain 70-15 / FGSC 8958) (Rice blast fungus)(Pyricularia oryzae), UniProt P56221); test: The inhibitory activity (Ki) of the protonated compound was measured against scytalone dehydratase at pH 7.0; parameters: species or system Pyricularia grisea
T1 sequence (P56221 whole entry): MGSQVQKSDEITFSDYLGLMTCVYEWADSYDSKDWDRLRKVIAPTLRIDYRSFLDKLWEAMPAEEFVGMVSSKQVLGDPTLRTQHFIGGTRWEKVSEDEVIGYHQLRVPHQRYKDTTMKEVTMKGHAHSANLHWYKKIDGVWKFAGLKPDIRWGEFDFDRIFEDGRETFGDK

[2] = target: T1, Scytalone dehydratase; test: The inhibitory activity (Ki) of the deprotonated compound was measured against scytalone dehydratase at pH 9.8; parameters: species or system Pyricularia grisea

Row | SMILES | Ki [1] [µM] | Ki [2] [µM]
1 | O=C(NCCCc1ccccc1)c1ccccc1O | 0.0073 | 0.23
2 | c1ccc(CCCNc2ncnc3ccccc23)cc1 | 1.8 | 0.019
3 | c1ccc(CCCNc2ccnc3ccccc23)cc1 | 88 | 45
4 | c1ccc(CCCNc2nccc3ccccc23)cc1 | 6.7 | 2.3

Source: ChEMBL document CHEMBL1126529, “A diazine heterocycle replaces a six-membered hydrogen-bonded array in the active site of scytalone dehydratase” (Bioorg Med Chem Lett, 1993)
